We go through 27 compounds from patent US10189854B2, “Substituted pyrimidine compounds” (Grünenthal GmbH, priority 2014, dated 2019).

Sequence of human PDE4B1 (Q07343 whole entry): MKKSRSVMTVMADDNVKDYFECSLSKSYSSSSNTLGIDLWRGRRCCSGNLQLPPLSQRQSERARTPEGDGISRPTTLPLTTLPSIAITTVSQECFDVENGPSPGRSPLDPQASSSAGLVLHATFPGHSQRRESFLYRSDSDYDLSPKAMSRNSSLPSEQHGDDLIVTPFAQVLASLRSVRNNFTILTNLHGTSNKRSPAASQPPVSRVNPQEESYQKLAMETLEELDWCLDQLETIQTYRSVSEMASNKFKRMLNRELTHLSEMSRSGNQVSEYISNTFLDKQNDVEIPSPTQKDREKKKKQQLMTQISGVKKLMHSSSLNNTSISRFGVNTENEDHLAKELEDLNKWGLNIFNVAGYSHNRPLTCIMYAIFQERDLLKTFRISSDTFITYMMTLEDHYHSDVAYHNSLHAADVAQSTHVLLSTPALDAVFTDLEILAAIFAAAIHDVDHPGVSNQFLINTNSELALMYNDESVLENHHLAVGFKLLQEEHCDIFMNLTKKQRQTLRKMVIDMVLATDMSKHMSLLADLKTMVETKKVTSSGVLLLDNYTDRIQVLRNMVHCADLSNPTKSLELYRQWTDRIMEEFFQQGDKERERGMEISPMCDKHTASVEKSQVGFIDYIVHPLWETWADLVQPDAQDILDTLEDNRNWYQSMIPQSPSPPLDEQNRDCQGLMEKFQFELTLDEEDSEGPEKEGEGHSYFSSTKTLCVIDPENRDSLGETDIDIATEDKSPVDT

The test has as its target human PDE4B1 (Homo sapiens (Human), UniProt Q07343). Briefly: TR-FRET assay using the LANCE Ultra cAMP kit to determine the activity of hPDE4B1. The format is biochemical. As to conditions: IC50 inhibition of PDE4B, mean. Summed up: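 Recombinant human PDE4B1 (Sf9-expressed, 0.96 U) incubated with compound and 500 nM cAMP in 50 mM Tris-HCl, 50 mM MgCl2, 5 mM DTT, pH 8.5, 30 min at room temperature. Residual cAMP read by TR-FRET (665/620 nm ratio) after IBMX stop. IC50 from ten-concentration curves as % inhibition of control.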
For `CN(CCO)C(=O)c1ccc2c(c1)N(c1ncc(-c3cccc(C[S+](C)[O-])c3)cn1)CC21CC1` (stereo not drawn) [Compound 342, N-(2-Hydroxy-ethyl)-N-methyl-1-[5-[3-[(methylsulfinyl)-methyl]-phenyl]-pyrimidin-2-yl]-spiro[1,2-dihydro-indole-3,1′-cyclopropane]-6-carboxylic acid amide], the IC50 is < 0.1 µM.

`CC(O)c1cccc(-c2cnc(N3CC4(CC4)c4ccc(C(=O)N(C)CCO)cc43)nc2)c1` (stereo not drawn) [Compound 322, N-(2-Hydroxy-ethyl)-1-[5-[3-(1-hydroxy-ethyl)-phenyl]-pyrimidin-2-yl]-N-methyl-spiro[1,2-dihydro-indole-3,1′-cyclopropane]-6-carboxylic acid amide]: the IC50 is < 0.1 µM.

In the case of `CN(CCO)C(=O)c1ccc2c(c1)N(c1ncc(-c3cc(NCC4CC4)ccc3F)cn1)CC21CC1` [Compound 333, 1-[5-[5-(Cyclopropyl-methylamino)-2-fluoro-phenyl]-pyrimidin-2-yl]-N-(2-hydroxy-ethyl)-N-methyl-spiro[1,2-dihydro-indole-3,1′-cyclopropane]-6-carboxylic acid amide], the IC50 was < 0.1 µM.

On to `Cc1cc(N)cc(-c2cnc(N3CC4(CC4)c4ccc(C(=O)N(C)CCO)cc43)nc2)n1` [Compound 261, 1-[5-(4-Amino-6-methyl-pyridin-2-yl)-pyrimidin-2-yl]-N-(2-hydroxy-ethyl)-N-methyl-spiro[1,2-dihydro-indole-3,1′-cyclopropane]-6-carboxylic acid amide], for which the IC50 was < 0.1 µM.

Take `O=C(c1ccc2c(c1)N(c1ncc(-c3ccccc3)cn1)CC21CC1)N1C[C@@H]2C[C@H]1CN2` [Compound 249, [(1S,4S)-2,5-Diazabicyclo[2.2.1]heptan-2-yl]-[1-(5-phenyl-pyrimidin-2-yl)-spiro[1,2-dihydro-indole-3,1′-cyclopropane]-6-yl]-methanone]: the IC50 was < 0.1 µM.

With `O=C(c1ccc2c(c1)N(c1ncc(-c3ccccc3F)cn1)CC21CC1)N1CC[C@H](CO)C1` [Compound 310, [1-[5-(2-Fluorophenyl)-pyrimidin-2-yl]-spiro[1,2-dihydro-indole-3,1′-cyclopropane]-6-yl]-[(3S)-3-(hydroxymethyl)-pyrrolidin-1-yl]-methanone], the IC50 is < 0.1 µM.

As for `CC(C)c1ccnc(-c2cnc(N3CC4(CC4)c4ccc(C(=O)N5CC[C@@H](N)C5)cc43)nc2)c1` [Compound 331, [(3R)-3-Amino-pyrrolidin-1-yl]-[1-[5-(4-isopropyl-pyridin-2-yl)-pyrimidin-2-yl]-spiro[1,2-dihydro-indole-3,1′-cyclopropane]-6-yl]-methanone], the IC50 is < 0.1 µM.

On to `C[C@@H](O)CN1CCN(C(=O)c2ccc3c(c2)N(c2ncc(-c4ccccc4F)cn2)CC32CC2)CC1` [Compound 239, [1-[5-(2-Fluorophenyl)-pyrimidin-2-yl]-spiro[1,2-dihydro-indole-3,1′-cyclopropane]-6-yl]-[4-[(2R)-2-hydroxy-propyl]-piperazin-1-yl]-methanone], for which the IC50 is < 0.1 µM.

As for `CC(=O)Nc1ccnc(-c2cnc(N3CC4(CC4)c4ccc(C(=O)N(C)CCO)cc43)nc2)c1` [Compound 252, 1-[5-(4-Acetylamino-pyridin-2-yl)-pyrimidin-2-yl]-N-(2-hydroxy-ethyl)-N-methyl-spiro[1,2-dihydro-indole-3,1′-cyclopropane]-6-carboxylic acid amide], the IC50 was < 0.1 µM.

On to `CN(CCO)C(=O)c1ccc2c(c1)N(c1ncc(-c3cc(CO)cs3)cn1)CC21CC1` [Compound 347, N-(2-Hydroxy-ethyl)-1-[5-[4-(hydroxymethyl)-thiophen-2-yl]-pyrimidin-2-yl]-N-methyl-spiro[1,2-dihydro-indole-3,1′-cyclopropane]-6-carboxylic acid amide], for which the IC50 is < 0.1 µM.

With `CC(=O)Nc1ccnc(-c2cnc(N3CC4(CC4)c4ccc(C(=O)N5CCOCC5)cc43)nc2)c1` [Compound 346, N-[2-[2-[6-(Morpholine-4-carbonyl)-spiro[1,2-dihydro-indole-3,1′-cyclopropane]-1-yl]-pyrimidin-5-yl]-pyridin-4-yl]-acetamide], the IC50 was < 0.1 µM.

Turning to `CN(CCO)C(=O)c1ccc2c(c1)N(c1ncc(-c3cccc(F)c3F)cn1)CC21CC1` [Compound 225, 1-[5-(2,3-Difluoro-phenyl)-pyrimidin-2-yl]-N-(2-hydroxy-ethyl)-N-methyl-spiro[1,2-dihydro-indole-3,1′-cyclopropane]-6-carboxylic acid amide], the IC50 is < 0.1 µM.

With `CC(O)c1ccnc(-c2cnc(N3CC4(CC4)c4ccc(C(=O)N5CCOCC5)cc43)nc2)c1` (stereo not drawn) [Compound 293, [1-[5-[4-(1-Hydroxy-ethyl)-pyridin-2-yl]-pyrimidin-2-yl]-spiro[1,2-dihydro-indole-3,1′-cyclopropane]-6-yl]-morpholin-4-yl-methanone], the IC50 is < 0.1 µM.

With `CCc1cccc(-c2cnc(N3CC4(CC4)c4ccc(C(=O)N(C)CCO)cc43)nc2)c1` [Compound 266, 1-[5-(3-Ethyl-phenyl)-pyrimidin-2-yl]-N-(2-hydroxy-ethyl)-N-methyl-spiro[1,2-dihydro-indole-3,1′-cyclopropane]-6-carboxylic acid amide], the IC50 was < 0.1 µM.

As for `CCc1ccnc(-c2cnc(N3CC4(CC4)c4ccc(C(=O)N(C)CC(N)=O)cc43)nc2)c1` [Compound 308, N-(Carbamoyl-methyl)-1-[5-(4-ethyl-pyridin-2-yl)-pyrimidin-2-yl]-N-methyl-spiro[1,2-dihydro-indole-3,1′-cyclopropane]-6-carboxylic acid amide], the IC50 was < 0.1 µM.

Consider `Cc1ccnc(-c2cnc(N3CC4(CC4)c4ccc(C(=O)N(C)C)cc43)nc2)c1` [Compound 299, N,N-Dimethyl-1-[5-(4-methyl-pyridin-2-yl)-pyrimidin-2-yl]-spiro[1,2-dihydro-indole-3,1′-cyclopropane]-6-carboxylic acid amide], for which the IC50 was < 0.1 µM.

Take `O=C(c1ccc2c(c1)N(c1ncc(-c3cc(N4CCCC4)ccn3)cn1)CC21CC1)N1CCOCC1` [Compound 291, Morpholin-4-yl-[1-[5-(4-pyrrolidin1--yl-pyridin-2-yl)-pyrimidin-2-yl]-spiro[1,2-dihydro-indole-3,1′-cyclopropane]-6-yl]-methanone]: the IC50 is < 0.1 µM.

Regarding `O=C(c1ccc2c(c1)N(c1ncc(-c3cc(C4CC4)ccn3)cn1)CC21CC1)N1CCC[C@H](CO)C1` [Compound 332, [1-[5-(4-Cyclopropyl-pyridin-2-yl)-pyrimidin-2-yl]-spiro[1,2-dihydro-indole-3,1′-cyclopropane]-6-yl]-[(3S)-3-(hydroxymethyl)-piperidin-1-yl]-methanone], the IC50 is < 0.1 µM.

Turning to `CCc1ccnc(-c2cnc(N3CC4(CC4)c4ccc(C(=O)N5C[C@@H]6C[C@H]5CN6)cc43)nc2)c1` [Compound 298, [(1S,4S)-2,5-Diazabicyclo[2.2.1]heptan-2-yl]-[1-[5-(4-ethyl-pyridin-2-yl)-pyrimidin-2-yl]-spiro[1,2-dihydro-indole-3,1′-cyclopropane]-6-yl]-methanone], the IC50 was < 0.1 µM.

`O=C(O)C1CCCN(C(=O)c2ccc3c(c2)N(c2ncc(-c4ccccc4F)cn2)CC32CC2)C1` (stereo not drawn) [Compound 238, 1-[1-[5-(2-Fluorophenyl)-pyrimidin-2-yl]-spiro[1,2-dihydro-indole-3,1′-cyclopropane]-6-carbonyl]-piperidine-3-carboxylic acid]: the IC50 was < 0.1 µM.

`CN(CCO)C(=O)c1ccc2c(c1)N(c1ncc(-c3ccnc(F)c3)cn1)CC21CC1` [Compound 231, 1-[5-(2-Fluoro-pyridin-4-yl)-pyrimidin-2-yl]-N-(2-hydroxy-ethyl)-N-methyl-spiro[1,2-dihydro-indole-3,1′-cyclopropane]-6-carboxylic acid amide]: the IC50 was < 0.1 µM.

Regarding `CC[S+]([O-])c1cccc(-c2cnc(N3CC4(CC4)c4ccc(C(=O)N(C)CCO)cc43)nc2)c1` (stereo not drawn) [Compound 341, 1-[5-[3-(Ethylsulfinyl)-phenyl]-pyrimidin-2-yl]-N-(2-hydroxy-ethyl)-N-methyl-spiro[1,2-dihydro-indole-3,1′-cyclopropane]-6-carboxylic acid amide], the IC50 is < 0.1 µM.

`CN(CCO)C(=O)c1ccc2c(c1)N(c1ncc(-c3cc(C(F)(F)F)ccc3F)cn1)CC21CC1` [Compound 365, 1-[5-[2-Fluoro-5-(trifluoromethyl)-phenyl]-pyrimidin-2-yl]-N-(2-hydroxy-ethyl)-N-methyl-spiro[1,2-dihydro-indole-3,1′-cyclopropane]-6-carboxylic acid amide]: the IC50 was < 0.1 µM.

In the case of `O=C(O)CN1CCN(C(=O)c2ccc3c(c2)N(c2ncc(-c4ccccc4F)cn2)CC32CC2)CC1` [Compound 237, 2-[4-[1-[5-(2-Fluorophenyl)-pyrimidin-2-yl]-spiro[1,2-dihydro-indole-3,1′-cyclopropane]-6-carbonyl]-pieprazin-1-yl]-acetic acid], the IC50 was in the range of 0.1 to 1 µM.

For `CCc1ccnc(-c2cnc(N3CC4(CC4)c4ccc(C(=O)N5CCCC5)cc43)nc2)c1` [Compound 275, [1-[5-(4-Ethyl-pyridin-2-yl)-pyrimidin-2-yl]-spiro[1,2-dihydro-indole-3,1′-cyclopropane]-6-yl]-pyrrolidin-1-yl-methanone], the IC50 is < 0.1 µM.

As for `O=C(c1ccc2c(c1)N(c1ncc(-c3cc(NCC4CC4)ccn3)cn1)CC21CC1)N1CCOCC1` [Compound 295, [1-[5-[4-(Cyclopropyl-methylamino)-pyridin-2-yl]-pyrimidin-2-yl]-spiro[1,2-dihydro-indole-3,1′-cyclopropane]-6-yl]-morpholin-4-yl-methanone], the IC50 is < 0.1 µM.

As for `CN(CCO)C(=O)c1ccc2c(c1)N(c1ncc(-c3cccc(O)n3)cn1)CC21CC1` [Compound 280, N-(2-Hydroxy-ethyl)-1-[5-(6-hydroxy-pyridin-2-yl)-pyrimidin-2-yl]-N-methyl-spiro[1,2-dihydro-indole-3,1′-cyclopropane]-6-carboxylic acid amide], the IC50 is < 0.1 µM.
